Experimental findings from PubChem BioAssay (NCI) are described below.

The structures appear in SMILES notation.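 Values below derive from 48-hour exposures of cells grown in 96-well plates, with endpoints linearly interpolated between the two concentrations bracketing the appropriate inhibition level. TGI denotes the concentration required for complete inhibition of growth.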

Some test systems named below: MDA-MB-435; HS 578T breast; M14 melanoma; UACC-62 melanoma; SF-295 CNS; MCF7 breast; LOX IMVI melanoma; HCT-15 colon; SK-OV-3 ovarian; SK-MEL-5 melanoma; ACHN renal; OVCAR-8 ovarian; HOP-62 NSCLC; NCI/ADR-RES ovarian; HL-60(TB) leukemia; T-47D breast; MDA-MB-231 breast; EKVX NSCLC; HCC-2998 colon; K-562 leukemia.
Assay in all cases: DTP human tumour cell line panel, 48 h

For orientation: TGI means the concentration giving total growth inhibition. Higher therefore signals lower sensitivity of the cells. `OC1(C(F)(F)F)OCCN=C1C(F)(F)F` (stereo not given): the TGI with MDA-MB-435 was more than 100 µM; with HS 578T breast, 81.3 µM; in the assay with M14 melanoma, more than 100 µM; in the assay with UACC-62 melanoma, more than 100 µM; in the assay with SF-295 CNS it was more than 100 µM; in the assay on MCF7 breast it was more than 100 µM. Also, the TGI in the assay with LOX IMVI melanoma, with HCT-15 colon, in the assay with SK-OV-3 ovarian, with SK-MEL-5 melanoma, with ACHN renal and in the assay on OVCAR-8 ovarian was more than 100 µM in each case. The TGI with HOP-62 NSCLC, in the assay on NCI/ADR-RES ovarian, in the assay with HL-60(TB) leukemia, in the assay on T-47D breast, in the assay on MDA-MB-231 breast and in the assay with EKVX NSCLC was more than 100 µM in each case. For the same compound, the total growth inhibition concentration (TGI) in the assay on HCC-2998 colon and in the assay on K-562 leukemia was more than 100 µM each time.

For `COC(=O)C1=C(C)NC2=C(C(=O)c3ccccc32)C1c1cn(-c2ccccc2)nc1-c1ccccc1` (stereo not given), the TGI in the assay with MDA-MB-435, with HS 578T breast, in the assay on M14 melanoma, with UACC-62 melanoma, in the assay on SF-295 CNS and in the assay on MCF7 breast was more than 100 µM each time. Besides, the TGI with LOX IMVI melanoma, in the assay with HCT-15 colon, in the assay with SK-OV-3 ovarian, in the assay with SK-MEL-5 melanoma, in the assay with ACHN renal and in the assay with OVCAR-8 ovarian was more than 100 µM each time. Besides, the TGI in the assay on HOP-62 NSCLC, with NCI/ADR-RES ovarian, in the assay with HL-60(TB) leukemia, in the assay with T-47D breast, with MDA-MB-231 breast and with EKVX NSCLC was more than 100 µM in each case. The TGI with HCC-2998 colon and in the assay on K-562 leukemia was more than 100 µM in each case.

`O=C(NCC(=O)N1CCCC1C(=O)OC(=O)C1CCCN1C(=O)CNC(=O)OCc1ccccc1)OCc1ccccc1` (stereo not given): the TGI with MDA-MB-435 is 68.3 µM; in the assay with HS 578T breast, more than 100 µM; in the assay with M14 melanoma, 45.7 µM; with UACC-62 melanoma it was 34.6 µM; in the assay with SF-295 CNS, 47.8 µM; with MCF7 breast, 60 µM. For the same compound, the TGI in the assay with LOX IMVI melanoma is 36.2 µM; in the assay with HCT-15 colon it was more than 100 µM; in the assay on SK-OV-3 ovarian, more than 100 µM; in the assay on SK-MEL-5 melanoma, 62.3 µM; with ACHN renal, more than 100 µM; with OVCAR-8 ovarian, more than 100 µM. The TGI was 77 µM in the assay on HOP-62 NSCLC; more than 100 µM in the assay on NCI/ADR-RES ovarian; 70.3 µM with HL-60(TB) leukemia; more than 100 µM with T-47D breast; 54.7 µM in the assay with MDA-MB-231 breast; more than 100 µM in the assay with EKVX NSCLC. Besides, the TGI in the assay on HCC-2998 colon was more than 100 µM; in the assay with K-562 leukemia, 72.8 µM.

Consider `CCCn1c2ccccc2c2ccc3c(c21)C(=O)C=CC3=O`, for which the TGI was 5.29 µM with MDA-MB-435; more than 10 µM in the assay on HS 578T breast; more than 6.11 µM with M14 melanoma; more than 10 µM in the assay on UACC-62 melanoma; more than 10 µM in the assay with SF-295 CNS; 4.59 µM in the assay on MCF7 breast. For the same compound, the TGI with LOX IMVI melanoma was more than 10 µM; in the assay with HCT-15 colon it was 4.7 µM; with SK-OV-3 ovarian, more than 10 µM; in the assay on SK-MEL-5 melanoma, more than 10 µM; in the assay with ACHN renal it was 3.59 µM; in the assay with OVCAR-8 ovarian it was more than 6.96 µM. In addition, the TGI in the assay on HOP-62 NSCLC is more than 10 µM; in the assay with NCI/ADR-RES ovarian, more than 6.93 µM; with HL-60(TB) leukemia, more than 2.27 µM; in the assay with T-47D breast, 5.44 µM; in the assay on MDA-MB-231 breast it was 5.08 µM; in the assay with EKVX NSCLC, more than 7.95 µM. Besides, the TGI in the assay with HCC-2998 colon was more than 10 µM; with K-562 leukemia, 2.24 µM.
